Where two headings read alike, the source gives them in different places.
Tests used:
physchem = test: physchem
Description: The aqueous solubility of zoledronic acid and disodium zoledronate tetrahydrate was determined. One gram of the test compound was measured in to a beaker. Demineralized water (pH 5.5) was then added in small increments to the test compound, and sonification was applied to the mixture. The procedure was continued until complete dissolution was achieved. Full dissolution was determined to have been reached when a clear solution was present with no visible material. The volume of water required to reach full dissolution was used to calculate a solubility value expressed in grams per 100 mL. The procedure was performed for each compound.

[1] = test system: rat tibia fracture model of complex regional pain syndrome (CRPS); test: Rat tibia fracture model of complex regional pain syndrome (CRPS): hindpaw pain, weight bearing, edema, warmth; type: in vivo; conditions: oral 18 mg/m^2/day (3 mg/kg/day) for 28 days
Description: The effect of orally administered zoledronic acid was examined in the rat tibia fracture model of complex regional pain syndrome (CRPS). CRPS was induced in the rats by fracturing the right distal tibias of the animals and casting the fractured hindpaws for 4 weeks, as described in Guo T Z et al. (Pain. 2004; 108:95-107).
Animals were orally administered either vehicle (control) or zoledronic acid, in a dosage of 18 mg/m^2/day (3 mg/kg/day) for 28 days, starting on the day of fracture and casting. Drug was dissolved in distilled water and administered by gavage. Animals were fasted for 4 hours before and 2 hours after dosing. At the end of the 28-day period, casts were removed, and on the following day, the rats were tested for hindpaw pain, edema, and warmth.
Pain was assessed by measuring hyperalgesia, and weight bearing.
To measure hyperalgesia, an up-down von Frey testing paradigm was used. Rats were placed in a clear plastic cylinder (20 cm in diameter) with a wire mesh bottom and allowed to acclimate for 15 minutes. The paw was tested with one of a series of eight von Frey hairs ranging in stiffness from 0.41 g to 15.14 g. The von Frey hair was applied against the hindpaw plantar skin at approximately midsole, taking care to avoid the tori pads. The fiber was pushed until it slightly bowed and then it was jiggled in that position for 6 seconds. Stimuli were presented at an interval of several seconds. Hindpaw withdrawal from the fiber was considered a positive response. The initial fiber presentation was 2.1 g and the fibers were presented according to the up-down method of Dixon to generate six responses in the immediate vicinity of the 50% threshold. […].
An incapacitance device (IITC Inc. Life Science, Woodland, Calif., USA) was used to measure hindpaw weight bearing, a postural effect of pain. The rats were manually held in a vertical position over the apparatus with the hindpaws resting on separate metal scale plates and the entire weight of the rat was supported on the hindpaws. The duration of each measurement was 6 seconds and 10 consecutive measurements were taken at 60-second intervals. Eight readings (excluding the highest and lowest ones) were averaged to calculate the bilateral hindpaw weight-bearing values. Weight bearing data were analyzed as the ratio between right (fracture) and left hindpaw weight bearing values ((2R/(R+L))×100%).
A laser sensor technique was used to determine the dorsal-ventral thickness of the hindpaw. Before baseline testing the bilateral hindpaws were tattooed with a 2 to 3 mm spot on the dorsal skin over the midpoint of the third metatarsal. […]
The temperature of the hindpaw was measured using a fine wire thermocouple (Omega, Stanford, Conn., USA) applied to the paw skin. […]

[2] = test system: rat complete Freund's adjuvant (CFA) model of inflammatory pain; type: in vivo, Sprague-Dawley rats; conditions: for improvement in pain threshold from baseline: day three
Description: The effect of orally administered zoledronic acid on inflammatory pain was examined using the rat complete Freund's adjuvant (CFA) model. Inflammatory pain was induced by injection of 100% CFA in a 75 μL volume into the left hind paws of Sprague-Dawley rats on day 0, followed by assessments on days 1-3. Animals were orally administered vehicle (control), zoledronic acid 18 mg/m^2 (or 3 mg/kg), zoledronic acid 120 mg/m^2 (or 20 mg/kg), or zoledronic acid 900 mg/m^2 (or 150 mg/kg) daily on days 1-3. Drug was dissolved in distilled water and prepared fresh daily. Animals were fasted prior to dosing. Under current FDA guidelines for extrapolating starting dosages from animals to humans, dosages expressed in mg/m^2 are considered equivalent between mammalian species. Thus, for example, 18 mg/m^2 in a rat is considered equivalent to 18 mg/m^2 in a human being, while 3 mg/kg in a rat may not be equivalent to 3 mg/kg in a human being.
Values for inflammatory pain (mechanical hyperalgesia) in the vehicle and drug-treated animals were obtained on day 0 prior to CFA injection, and at baseline and post-treatment on days 1-3. Pain was assessed using a digital Randall-Selitto device (dRS; IITC Life Sciences, Woodland Hills, Calif.). Animals were placed in a restraint sling that suspended the animal, leaving the hind limbs available for testing. Paw compression threshold was measured by applying increasing pressure to the plantar surface of the hind paw with a dome-shaped tip placed between the 3rd and 4th metatarsus. Pressure was applied gradually over approximately 10 seconds. Measurements were taken from the first observed nocifensive behavior of vocalization, struggle or withdrawal. A cut-off value of 300 g was used to prevent injury to the animal.
Reversal of inflammatory pain was calculated according to the formula:
% reversal=(Post-treatment−Post-CFA baseline)/(Pre-CFA baseline−Post-CFA baseline)×100.
The experiment was carried out using 9-10 animals per group.

[3] = test system: rat complete Freund's adjuvant (CFA) model of arthritis pain; test: Rat complete Freund's adjuvant (CFA) model of arthritis pain, paw compression threshold (Randall-Selitto); type: in vivo; conditions: evaluated day 14 post CFA
Description: The effect of orally administered zoledronic acid on arthritis pain was examined in the rat complete Freund's adjuvant (CFA) model of arthritis pain. In this model, injection of 100% complete Freund's adjuvant (CFA) in a […] volume into the left hind paws is followed by a 10-14 day period to allow for the development of arthritis pain. Animals were orally administered vehicle (control), zoledronic acid 54 mg/m^2 (or 9 mg/kg), or zoledronic acid 360 mg/m^2 (or 60 mg/kg), divided in three equal daily doses on the first three days post CFA injection. Drug was dissolved in distilled water and prepared fresh daily. Animals were fasted prior to dosing.
Arthritis pain (mechanical hyperalgesia) in the vehicle and drug-treated animals was evaluated on day 14 post CFA injection using a digital Randall-Selitto device (dRS; IITC Life Sciences, Woodland Hills, Calif.). Animals were placed in a restraint sling that suspended the animal, leaving the hind limbs available for testing. Paw compression threshold was measured by applying increasing pressure to the plantar surface of the hind paw with a dome-shaped tip placed between the 3rd and 4th metatarsus. Pressure was applied gradually over approximately 10 seconds. […]
Reversal of arthritis pain in the ipsilateral (CFA-injected) paw was calculated according to the formula: […]

[4] = oral 18 mg/m^2 (3 mg/kg) daily on days 1-3
[5] = oral 900 mg/m^2 (150 mg/kg) daily on days 1-3

| SMILES | aqueous solubility (physchem; pH 5.5) [g/100 mL] | reduction of hindpaw warmth versus vehicle [1] [%] | reversal of fracture induced pain (von Frey threshold) as compared to vehicle [1] [%] | hindlimb weight bearing, % of normal ([1]; fracture hindlimb) | reduction of hindpaw edema versus vehicle ([1]; hindpaw thickness) [%] | solubility (physchem; pH 5.5, water, thermodynamic from solid) [µg/mL] | reversal of inflammatory pain [2, 4] [%] | improvement in pain threshold from baseline [2, 4] [%] | paw compression thresholds versus vehicle ([2]; oral 18 mg/m^2, entire measurement period after 30 minutes from start of treatment) | paw compression thresholds versus vehicle ([2]; oral 120 mg/m^2 (20 mg/kg) daily, all time points during the assessment period) | reversal of inflammatory pain [2, 5] [%] | improvement in pain threshold from baseline [2, 5] [%] | toxicity ([2]; oral 900 mg/m^2 (150 mg/kg) daily on days 1-3, two days after cessation of dosing) | paw compression thresholds versus vehicle ([2]; two higher doses (120 and 900 mg/m^2), first two days of dosing) | reversal of arthritis pain ([3]; oral 54 mg/m^2 (9 mg/kg) in three equal daily doses) [%] | reversal of arthritis pain ([3]; oral 360 mg/m^2 (60 mg/kg) in three equal daily doses) [%] |
| --- | --- | --- | --- | --- | --- | --- | --- | --- | --- | --- | --- | --- | --- | --- | --- | --- |
| O.O.O.O.O=P([O-])(O)C(O)(Cn1ccnc1)P(=O)([O-])O.[Na+].[Na+] [disodium zoledronate tetrahydrate] | ≥ 12.5 | – | – | – | – | – | – | – | – | – | – | – | – | – | – | – |
| O=P(O)(O)C(O)(Cn1ccnc1)P(=O)(O)O [zoledronic acid] | – | 5 | 77 | 86 % of normal | 60 | ≥ 2500 | 29 | 49 | higher than for vehicle | approximately equal or inferior to vehicle | 48 | 83 | significant toxicity necessitating euthanization of all the animals in this group | lower than vehicle | 33 | 54 |

— US20130303485A1, “Compositions for Oral Administration of Zoledronic Acid or Related Compounds for Treating Disease” (priority 2012, published 2013)
